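These data come from cells grown in 96-well plates and exposed to compound for 48 hours at five concentrations. Abbreviation: GI50, concentration required for 50% inhibition of growth.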 Activity calls are given as the source filed them. Rule as the data show it: active = GI50 up to about 1.1 µM and inactive = higher.
Experiments:
Experiment in all cases: NCI anticancer screen, dose series, 48 h
NCI-H23 = test system: NCI-H23
RPMI-8226 = test system: RPMI-8226
OVCAR-4 = test system: OVCAR-4
786-0 = test system: 786-0
MDA-MB-231 = test system: MDA-MB-231
U-251 = test system: U-251
SR = test system: SR
A549 = test system: A549
Hs-578T = test system: Hs-578T
M14 = test system: M14
HCC 2998 = test system: HCC 2998
HOP-92 = test system: HOP-92
A498 = test system: A498
SN12C = test system: SN12C
SK-MEL-28 = test system: SK-MEL-28
SF-539 = test system: SF-539
ACHN = test system: ACHN
PC-3 = test system: PC-3

| Compound | GI50 (NCI-H23) | GI50 (RPMI-8226) | GI50 (OVCAR-4) | GI50 (786-0) | GI50 (MDA-MB-231) | GI50 (U-251) | GI50 (SR) | GI50 (A549) | GI50 (Hs-578T) | GI50 (M14) | GI50 (HCC 2998) | GI50 (HOP-92) | GI50 (A498) | GI50 (SN12C) | GI50 (SK-MEL-28) | GI50 (SF-539) | GI50 (ACHN) | GI50 (PC-3) |
| --- | --- | --- | --- | --- | --- | --- | --- | --- | --- | --- | --- | --- | --- | --- | --- | --- | --- | --- |
| NS(=O)(=O)c1nnc(NC(=O)C23CC4CC(CC(C4)C2)C3)s1 | > 100 µM (inactive) | 88.9 µM (inactive) | 0.101 µM (active) | > 100 µM (inactive) | > 100 µM (inactive) | > 100 µM (inactive) | > 100 µM (inactive) | > 100 µM (inactive) | > 100 µM (inactive) | > 100 µM (inactive) | > 100 µM (inactive) | > 100 µM (inactive) | > 100 µM (inactive) | > 100 µM (inactive) | > 100 µM (inactive) | > 100 µM (inactive) | > 100 µM (inactive) | – |
| CN(C)CCCNC(=O)c1cc(NC(=O)c2cc(NS(=O)(=O)c3ccc4c(c3)C(=O)c3ccccc3C4=O)cn2C)cn1C | > 100 µM (inactive) | 21.5 µM (inactive) | > 100 µM (inactive) | > 100 µM (inactive) | > 100 µM (inactive) | 81.3 µM (inactive) | 27 µM (inactive) | > 100 µM (inactive) | – | > 100 µM (inactive) | > 100 µM (inactive) | > 100 µM (inactive) | > 100 µM (inactive) | > 100 µM (inactive) | 86.5 µM (inactive) | > 100 µM (inactive) | > 100 µM (inactive) | > 100 µM (inactive) |
| CC(=O)/C(=C\c1ccc(Cl)c(Cl)c1)C(=O)C(C)CN(C)C (configuration not stated) | 13.4 µM (inactive) | 1.32 µM (inactive) | – | 2.39 µM (inactive) | 11.5 µM (inactive) | 3.26 µM (inactive) | 1.82 µM (inactive) | 14.5 µM (inactive) | – | 9.75 µM (inactive) | 2.39 µM (inactive) | 2.26 µM (inactive) | 2.96 µM (inactive) | 6.73 µM (inactive) | 6.89 µM (inactive) | 3.52 µM (inactive) | 5.24 µM (inactive) | 4.62 µM (inactive) |
| CC1CC(NN)=Nc2ccccc2N1 (configuration not stated) | > 100 µM (inactive) | 65.9 µM (inactive) | > 100 µM (inactive) | > 100 µM (inactive) | > 100 µM (inactive) | > 100 µM (inactive) | – | > 100 µM (inactive) | > 100 µM (inactive) | > 100 µM (inactive) | – | – | > 100 µM (inactive) | > 100 µM (inactive) | > 100 µM (inactive) | – | > 100 µM (inactive) | > 100 µM (inactive) |
| Cc1nc2ccc(F)cc2c2c1CCN2c1ccccc1 | 20 µM (inactive) | 15.8 µM (inactive) | 23.7 µM (inactive) | 23 µM (inactive) | – | 26 µM (inactive) | 16.7 µM (inactive) | 22.6 µM (inactive) | 17.9 µM (inactive) | – | 18.1 µM (inactive) | 12.2 µM (inactive) | 27.6 µM (inactive) | – | 16.2 µM (inactive) | 21 µM (inactive) | 21.1 µM (inactive) | 19.1 µM (inactive) |
| NC1=NS(=O)(=O)Nc2nc(-c3ccc([N+](=O)[O-])cc3)[nH]c21 | > 100 µM (inactive) | > 100 µM (inactive) | > 100 µM (inactive) | > 100 µM (inactive) | – | > 100 µM (inactive) | > 100 µM (inactive) | > 100 µM (inactive) | – | > 100 µM (inactive) | > 100 µM (inactive) | > 100 µM (inactive) | – | > 100 µM (inactive) | > 100 µM (inactive) | > 100 µM (inactive) | > 100 µM (inactive) | – |
| O=S(=O)(N/C(=N\O)Nc1ccc(Cl)cc1)c1cc2ccccc2o1 | 18 µM (inactive) | – | 17.9 µM (inactive) | 20.7 µM (inactive) | 18 µM (inactive) | 17.7 µM (inactive) | – | 26.1 µM (inactive) | 20.4 µM (inactive) | 21.2 µM (inactive) | – | 13.3 µM (inactive) | – | 18.1 µM (inactive) | 17.9 µM (inactive) | 33.9 µM (inactive) | 19.5 µM (inactive) | 25.4 µM (inactive) |

— ChEMBL document CHEMBL1201862, “PubChem BioAssay data set” (2004)
